# Measurements published in ChEMBL document CHEMBL3244320, “2-Acetylpyridine thiosemicarbazones. 1. A new class of potential antimalarial agents” (J Med Chem, 1979).
# Test system: Plasmodium berghei
# Assay: Antimalarial activity against Plasmodium berghei KBG 173 infected in ICR/HA Swiss mouse assessed as increase in mean survival time at 320 mg/kg, sc administered 72 hrs post infection
# Format: functional
# Details: route subcutaneous
row,Compound,MST [days]
1,C/C(=N\NC(=S)Nc1ccc(F)cc1)c1ccccn1,7.7
2,C/C(=N\NC(=S)NCc1ccc(C)cc1)c1ccccn1,5.7
3,CC/C(=N\NC(=S)NC12CC3CC(CC(C3)C1)C2)c1ccccn1,6.3
4,C/C(=N\NC(=S)NC(C)c1ccc(F)cc1)c1ccccn1 (stereo unspecified),5.2

# Test system: Plasmodium berghei
# Assay: Antimalarial activity against Plasmodium berghei KBG 173 infected in ICR/HA Swiss mouse assessed as increase in mean survival time at 80 mg/kg, sc administered 72 hrs post infection
# Format: functional
# Details: route subcutaneous
row,Compound,MST [days]
1,CC/C(=N\NC(=S)Nc1ccccc1)c1ccccn1,1.2
2,C/C(=N\NC(=S)Nc1ccccc1)c1ccccn1,4.7
3,C/C(=N\NC(=S)Nc1ccc(F)cc1)c1ccccn1,3.7
4,C/C(=N\NC(=S)NCc1ccc(C)cc1)c1ccccn1,1.7
5,CC/C(=N\NC(=S)NC12CC3CC(CC(C3)C1)C2)c1ccccn1,0.3
6,C/C(=N\NC(=S)NC(C)c1ccc(F)cc1)c1ccccn1 (stereo unspecified),5.5

# Test system: Plasmodium berghei
# Assay: Antimalarial activity against Plasmodium berghei KBG 173 infected in ICR/HA Swiss mouse assessed as increase in mean survival time at 640 mg/kg, sc administered 72 hrs post infection
# Format: functional
# Details: route subcutaneous
row,Compound,MST [days]
1,C/C(=N\NC(=S)NCc1ccccc1Cl)c1ccccn1,1.9
2,CC/C(=N\NC(=S)Nc1cccc(Cl)c1)c1ccccn1,0.5
3,C/C(=N\NC(=S)NCc1ccncc1)c1ccccn1,0
4,CC/C(=N\NC(=S)Nc1ccc([N+](=O)[O-])cc1)c1ccccn1,0.3
5,C/C(=N\NC(=S)NCc1ccccn1)c1ccccn1,0.9
6,C/C(=N\NC(=S)NCc1cccc(C)c1)c1ccccn1,6.5
7,CC/C(=N\NC(=S)NC(c1ccccc1)(c1ccccc1)c1ccccc1)c1ccccn1,0.3
8,COc1ccc(NC(=S)N/N=C(\C)c2ccccn2)cc1,1.7
9,C/C(=N\NC(=S)Nc1c(Cl)cccc1Cl)c1ccccn1,0.1
10,C/C(=N\NC(=S)NCc1ccc(C)c(C)c1)c1ccccn1,2.1
11,C/C(=N\NC(=S)Nc1ccc(Cl)c(Cl)c1)c1ccccn1,0.5
12,C/C(=N\NC(=S)Nc1ccc(Cl)c(Cl)c1Cl)c1ccccn1,-0.3
13,CCOC(=O)c1ccc(NC(=S)N/N=C(\CC)c2ccccn2)cc1,0.5
14,C/C(=N\NC(=S)Nc1ccc(Cl)cc1Cl)c1ccccn1,0.7
15,C/C(=N\NC(=S)Nc1cc(Cl)cc(Cl)c1)c1ccccn1,0
16,C/C(=N\N=C(/S)NCc1ccccc1)c1ccccn1,10.6
17,CCOC(=O)CNC(=S)N/N=C(\C)c1ccccn1,0.3
18,COc1ccc(NC(=S)N/N=C(\C)c2ccccn2)nn1,0.2
19,CC/C(=N\NC(=S)Nc1ccc(Cl)cc1)c1ccccn1,1.1
20,C/C(=N\NC(=S)NCc1ccc(Cl)c(Cl)c1)c1ccccn1,0.1
21,C/C(=N\NC(=S)Nc1cccc(Cl)c1Cl)c1ccccn1,0.6
22,COc1cc(NC(=S)N/N=C(\C)c2ccccn2)c2nccc(C)c2c1,0.3

row,Compound,MST [days]
1,C/C(=N\NC(=S)Nc1cccc([N+](=O)[O-])c1)c1ccccn1,-0.1
2,CC/C(=N\NC(=S)NC12CC3CC(CC(C3)C1)C2)c1ccccn1,9.1
3,C/C(=N\NC(=S)Nc1ccncc1)c1ccccn1,0.9
4,C/C(=N\NC(=S)Nc1ccc(O)cc1)c1ccccn1,0.6
5,CCOC(=O)CNC(=S)N/N=C(\CC)c1ccccn1,0.5
6,CCOC(=O)c1ccc(NC(=S)N/N=C(\C)c2ccccn2)cc1,0.6
7,C/C(=N\NC(=S)Nc1ccc(Br)cc1)c1ccccn1,0.5
8,C/C(=N\NC(=S)NCc1cccnc1)c1ccccn1,0.6
9,C/C(=N\NC(=S)NCc1ccc(Cl)cc1Cl)c1ccccn1,2
10,C/C(=N\NC(=S)N1CC1)c1ccccn1,0.1
11,C/C(=N\NC(=S)Nc1cccc(Br)c1)c1ccccn1,0.9
12,C/C(=N\NC(=S)Nc1ccc([N+](=O)[O-])cc1)c1ccccn1,0.5
13,C/C(=N\NC(=S)Nc1ccc(S(=O)(=O)c2ccc(NC(=S)N/N=C(\C)c3ccccn3)cc2)cc1)c1ccccn1,0.3
14,CC/C(=N\NC(=S)Nc1ccccc1Cl)c1ccccn1,0.3
15,C/C(=N\NC(=S)Nc1cc(Cl)ccc1Cl)c1ccccn1,0.1
16,C/C(=N\NC(=S)Nc1cc(Cl)c(Cl)cc1Cl)c1ccccn1,-0.1
17,CC/C(=N\NC(=S)Nc1ccc(Br)cc1)c1ccccn1,0.7
18,C/C(=N\NC(=S)Nc1c2ccccc2nc2ccccc12)c1ccccn1,0.5
19,C/C(=N\NC(=S)Nc1cccnc1)c1ccccn1,1.3
20,CCCCc1ccc(NC(=S)N/N=C(\C)c2ccccn2)cc1,9.9
21,C/C(=N\NC(=S)NC(c1ccccc1)(c1ccccc1)c1ccccc1)c1ccccn1,0.1
22,C/C(=N\NC(=S)Nc1ccccc1Br)c1ccccn1,0.9

# Test system: Plasmodium berghei
# Assay: Antimalarial activity against Plasmodium berghei KBG 173 infected in ICR/HA Swiss mouse assessed as increase in mean survival time at 160 mg/kg, sc administered 72 hrs post infection
# Format: functional
# Details: route subcutaneous
row,Compound,MST [days]
1,C/C(=N\NC(=S)NCc1ccccc1Cl)c1ccccn1,0.3
2,CC/C(=N\NC(=S)Nc1cccc(Cl)c1)c1ccccn1,0.3
3,C/C(=N\NC(=S)NCc1ccncc1)c1ccccn1,0.4
4,CC/C(=N\NC(=S)Nc1ccc([N+](=O)[O-])cc1)c1ccccn1,0.1
5,C/C(=N\NC(=S)NCc1ccccn1)c1ccccn1,0.3
6,C/C(=N\NC(=S)NCc1cccc(C)c1)c1ccccn1,0.7
7,CC/C(=N\NC(=S)NC(c1ccccc1)(c1ccccc1)c1ccccc1)c1ccccn1,0.1
8,CC/C(=N\NC(=S)Nc1ccccc1)c1ccccn1,2.6
9,COc1ccc(NC(=S)N/N=C(\C)c2ccccn2)cc1,9.7
10,C/C(=N\NC(=S)Nc1ccccc1)c1ccccn1,11.1
11,C/C(=N\NC(=S)Nc1c(Cl)cccc1Cl)c1ccccn1,0.9
12,C/C(=N\NC(=S)NCc1ccc(C)c(C)c1)c1ccccn1,0.1
13,C/C(=N\NC(=S)Nc1ccc(Cl)c(Cl)c1)c1ccccn1,0.5
14,C/C(=N\NC(=S)Nc1ccc(Cl)c(Cl)c1Cl)c1ccccn1,0.1
15,CCOC(=O)c1ccc(NC(=S)N/N=C(\CC)c2ccccn2)cc1,0.5
16,C/C(=N\NC(=S)Nc1ccc(Cl)cc1Cl)c1ccccn1,0.3
17,C/C(=N\NC(=S)Nc1ccc(F)cc1)c1ccccn1,3.9
18,C/C(=N\NC(=S)Nc1cc(Cl)cc(Cl)c1)c1ccccn1,-0.2
19,C/C(=N\N=C(/S)NCc1ccccc1)c1ccccn1,3.7
20,CCOC(=O)CNC(=S)N/N=C(\C)c1ccccn1,0.1
21,COc1ccc(NC(=S)N/N=C(\C)c2ccccn2)nn1,0.1
22,CC/C(=N\NC(=S)Nc1ccc(Cl)cc1)c1ccccn1,0.7
23,C/C(=N\NC(=S)NCc1ccc(Cl)c(Cl)c1)c1ccccn1,0.5
24,C/C(=N\NC(=S)Nc1cccc(Cl)c1Cl)c1ccccn1,0.2
25,COc1cc(NC(=S)N/N=C(\C)c2ccccn2)c2nccc(C)c2c1,0.1

row,Compound,MST [days]
1,C/C(=N\NC(=S)Nc1cccc([N+](=O)[O-])c1)c1ccccn1,-0.3
2,C/C(=N\NC(=S)NCc1ccc(C)cc1)c1ccccn1,4.3
3,CC/C(=N\NC(=S)NC12CC3CC(CC(C3)C1)C2)c1ccccn1,3.7
4,C/C(=N\NC(=S)Nc1ccncc1)c1ccccn1,0.3
5,C/C(=N\NC(=S)Nc1ccc(O)cc1)c1ccccn1,0.3
6,CCOC(=O)CNC(=S)N/N=C(\CC)c1ccccn1,0.3
7,CCOC(=O)c1ccc(NC(=S)N/N=C(\C)c2ccccn2)cc1,0.3
8,C/C(=N\NC(=S)Nc1ccc(Br)cc1)c1ccccn1,0.3
9,C/C(=N\NC(=S)NCc1cccnc1)c1ccccn1,0.3
10,C/C(=N\NC(=S)NC(C)c1ccc(F)cc1)c1ccccn1 (stereo unspecified),8.5
11,C/C(=N\NC(=S)NCc1ccc(Cl)cc1Cl)c1ccccn1,1
12,C/C(=N\NC(=S)N1CC1)c1ccccn1,0.1
13,C/C(=N\NC(=S)Nc1cccc(Br)c1)c1ccccn1,0.3
14,C/C(=N\NC(=S)Nc1ccc([N+](=O)[O-])cc1)c1ccccn1,0.1
15,C/C(=N\NC(=S)Nc1ccc(S(=O)(=O)c2ccc(NC(=S)N/N=C(\C)c3ccccn3)cc2)cc1)c1ccccn1,0.1
16,CC/C(=N\NC(=S)Nc1ccccc1Cl)c1ccccn1,0.1
17,C/C(=N\NC(=S)Nc1cc(Cl)ccc1Cl)c1ccccn1,0.1
18,C/C(=N\NC(=S)Nc1cc(Cl)c(Cl)cc1Cl)c1ccccn1,0.1
19,CC/C(=N\NC(=S)Nc1ccc(Br)cc1)c1ccccn1,0.3
20,C/C(=N\NC(=S)Nc1c2ccccc2nc2ccccc12)c1ccccn1,0.3
21,C/C(=N\NC(=S)Nc1cccnc1)c1ccccn1,0.5
22,CCCCc1ccc(NC(=S)N/N=C(\C)c2ccccn2)cc1,3.9
23,C/C(=N\NC(=S)NC(c1ccccc1)(c1ccccc1)c1ccccc1)c1ccccn1,0.1
24,C/C(=N\NC(=S)Nc1ccccc1Br)c1ccccn1,0.5

# Test system: Plasmodium berghei
# Assay: Antimalarial activity against Plasmodium berghei KBG 173 infected in ICR/HA Swiss mouse assessed as increase in mean survival time at 40 mg/kg, sc administered 72 hrs post infection
# Format: functional
# Details: route subcutaneous
row,Compound,MST [days]
1,C/C(=N\NC(=S)NCc1ccccc1Cl)c1ccccn1,0.3
2,CC/C(=N\NC(=S)Nc1cccc(Cl)c1)c1ccccn1,0.3
3,C/C(=N\NC(=S)NCc1ccncc1)c1ccccn1,0.3
4,CC/C(=N\NC(=S)Nc1ccc([N+](=O)[O-])cc1)c1ccccn1,0.1
5,C/C(=N\NC(=S)NCc1ccccn1)c1ccccn1,0.1
6,C/C(=N\NC(=S)NCc1cccc(C)c1)c1ccccn1,0.3
7,CC/C(=N\NC(=S)NC(c1ccccc1)(c1ccccc1)c1ccccc1)c1ccccn1,0.1
8,CC/C(=N\NC(=S)Nc1ccccc1)c1ccccn1,0
9,COc1ccc(NC(=S)N/N=C(\C)c2ccccn2)cc1,2.1
10,C/C(=N\NC(=S)Nc1ccccc1)c1ccccn1,3.1
11,C/C(=N\NC(=S)Nc1c(Cl)cccc1Cl)c1ccccn1,0.1
12,C/C(=N\NC(=S)NCc1ccc(C)c(C)c1)c1ccccn1,0.3
13,C/C(=N\NC(=S)Nc1ccc(Cl)c(Cl)c1)c1ccccn1,0.5
14,C/C(=N\NC(=S)Nc1ccc(Cl)c(Cl)c1Cl)c1ccccn1,0.1
15,CCOC(=O)c1ccc(NC(=S)N/N=C(\CC)c2ccccn2)cc1,0.3
16,C/C(=N\NC(=S)Nc1ccc(Cl)cc1Cl)c1ccccn1,-0.1
17,C/C(=N\NC(=S)Nc1ccc(F)cc1)c1ccccn1,1.3
18,C/C(=N\NC(=S)Nc1cc(Cl)cc(Cl)c1)c1ccccn1,-0.2
19,C/C(=N\N=C(/S)NCc1ccccc1)c1ccccn1,0.5
20,CCOC(=O)CNC(=S)N/N=C(\C)c1ccccn1,0.1
21,COc1ccc(NC(=S)N/N=C(\C)c2ccccn2)nn1,0.1
22,CC/C(=N\NC(=S)Nc1ccc(Cl)cc1)c1ccccn1,0.3
23,C/C(=N\NC(=S)NCc1ccc(Cl)c(Cl)c1)c1ccccn1,0.1
24,C/C(=N\NC(=S)Nc1cccc(Cl)c1Cl)c1ccccn1,-0.2

row,Compound,MST [days]
1,COc1cc(NC(=S)N/N=C(\C)c2ccccn2)c2nccc(C)c2c1,0.1
2,C/C(=N\NC(=S)Nc1cccc([N+](=O)[O-])c1)c1ccccn1,0.1
3,C/C(=N\NC(=S)NCc1ccc(C)cc1)c1ccccn1,0.1
4,C/C(=N\NC(=S)Nc1ccncc1)c1ccccn1,0.1
5,C/C(=N\NC(=S)Nc1ccc(O)cc1)c1ccccn1,0.1
6,CCOC(=O)CNC(=S)N/N=C(\CC)c1ccccn1,0.3
7,CCOC(=O)c1ccc(NC(=S)N/N=C(\C)c2ccccn2)cc1,0.3
8,C/C(=N\NC(=S)Nc1ccc(Br)cc1)c1ccccn1,0.3
9,C/C(=N\NC(=S)NCc1cccnc1)c1ccccn1,0.1
10,C/C(=N\NC(=S)NC(C)c1ccc(F)cc1)c1ccccn1 (stereo unspecified),1.1
11,C/C(=N\NC(=S)NCc1ccc(Cl)cc1Cl)c1ccccn1,0.4
12,C/C(=N\NC(=S)N1CC1)c1ccccn1,0.1
13,C/C(=N\NC(=S)Nc1cccc(Br)c1)c1ccccn1,0.1
14,C/C(=N\NC(=S)Nc1ccc([N+](=O)[O-])cc1)c1ccccn1,0.1
15,C/C(=N\NC(=S)Nc1ccc(S(=O)(=O)c2ccc(NC(=S)N/N=C(\C)c3ccccn3)cc2)cc1)c1ccccn1,0.1
16,CC/C(=N\NC(=S)Nc1ccccc1Cl)c1ccccn1,0.1
17,C/C(=N\NC(=S)Nc1cc(Cl)ccc1Cl)c1ccccn1,-0.1
18,C/C(=N\NC(=S)Nc1cc(Cl)c(Cl)cc1Cl)c1ccccn1,-0.3
19,CC/C(=N\NC(=S)Nc1ccc(Br)cc1)c1ccccn1,0.3
20,C/C(=N\NC(=S)Nc1c2ccccc2nc2ccccc12)c1ccccn1,0.3
21,C/C(=N\NC(=S)Nc1cccnc1)c1ccccn1,0.3
22,CCCCc1ccc(NC(=S)N/N=C(\C)c2ccccn2)cc1,0.3
23,C/C(=N\NC(=S)NC(c1ccccc1)(c1ccccc1)c1ccccc1)c1ccccn1,0.1
24,C/C(=N\NC(=S)Nc1ccccc1Br)c1ccccn1,0.1
